Assay results: US20090004121A1, “Combination of picotamide with nafronyl” (priority 2007, published 2009)
Counter-ions that a name gives are not always drawn. Like-named read-outs stand apart in the source and are kept apart here.

How the values were obtained:
Assay type in all cases: cell-based
[1] = test system: Thoracic aortic rings; test: Contracting effect on rat aortic rings (organ bath); conditions: mean ±S.E.M.
Description: Thoracic aortic rings obtained from male Wistar rats are carefully cleaned of connective tissue. The aortic rings are suspended in the isolated muscle bath (20 mL). Each segment is suspended under a tension of 1 g in Krebs buffer (NaCl 118 mM, KCl 5.4 mM, CaCl2 2.5 mM, MgCl2.6H2O 1.5 mM, NaHCO3 25 mM, NaH2PO4 1.2 mM, glucose 10 mM; pH 7.4) which was bubbled with O2 95%/CO2 5% at 37° C. in 20 mL organ baths (EMKA Technologies, Paris, France). The muscle tension of aortic rings is isometrically recorded with a force-displacement transducer IT1 (EMKA Technologies, Paris, France). The buffer is renewed at 15 min intervals during the equilibrium period (40 min) before exposing the rings to the TXA2-mimetic U-46619 (20 nM), 8-iso-prostaglandin F2α (1 μM) or serotonin (5-hydroxy-tryptamine, 5-HT, 2 μM). When a stable tension is obtained (15 min), the compound of interest is added at a cumulative increasing concentration to the bath until the tension returned to the baseline value. Tension is recorded with a specific data acquisition program (IOX 1.445, EMKA Technologies, Paris, France). The EC50 value of each drug is assessed for at least 6 concentration-response curves obtained from separate preparations. EC50 is expressed as the concentration which reduces 50% of the tension induced by the contracting agent. The results are expressed as mean ±S.E.M. Nafronyl oxalate was obtained from Sigma-Aldrich; picotamide monohydrate was obtained from the European Directory of Quality of Medicines. […] These values are in line with results obtained in previous studies (S. W. Watts and J. M. Thompson, J Pharmacol Exp Ther 309:165-172, 2004; M. Lohn et al., FASEB J 16:1057-63, 2002).

[2] = test system: rat aorta rings pretreated with 8-iso-prostaglandin F2α; test: Relaxation of rat aortic rings using 8-iso-prostaglandin F2α 1 μM as contracting agent
Description: (§1) Thoracic aortic rings obtained from male Wistar rats are carefully cleaned of connective tissue. The aortic rings are suspended in the isolated muscle bath (20 mL). Each segment is suspended under a tension of 1 g in Krebs buffer (NaCl 118 mM, KCl 5.4 mM, CaCl2 2.5 mM, MgCl2.6H2O 1.5 mM, NaHCO3 25 mM, NaH2PO4 1.2 mM, glucose 10 mM; pH 7.4) which was bubbled with O2 95%/CO2 5% at 37° C. in 20 mL organ baths (EMKA Technologies, Paris, France). The muscle tension of aortic rings is isometrically recorded with a force-displacement transducer IT1 (EMKA Technologies, Paris, France). The buffer is renewed at 15 min intervals during the equilibrium period (40 min) before exposing the rings to the TXA2-mimetic U-46619 (20 nM), 8-iso-prostaglandin F2α (1 μM) or serotonin (5-hydroxy-tryptamine, 5-HT, 2 μM). When a stable tension is obtained (15 min), the compound of interest is added at a cumulative increasing concentration to the bath until the tension returned to the baseline value. Tension is recorded with a specific data acquisition program (IOX 1.445, EMKA Technologies, Paris, France). The EC50 value of each drug is assessed for at least 6 concentration-response curves obtained from separate preparations. EC50 is expressed as the concentration which reduces 50% of the tension induced by the contracting agent. The results are expressed as mean ±S.E.M. Nafronyl oxalate was obtained from Sigma-Aldrich; picotamide monohydrate was obtained from the European Directory of Quality of Medicines. Relaxation experiments on aortas precontracted with 8-iso-prostaglandin F2α 1 μM were done with picotamide monohydrate alone in increasing concentrations of 10^−8 M, 10^−7 M, 10^−6 M, 10^−5 M, 10^−4 M, as well as with the same concentrations of picotamide monohydrate in the presence of 1 μM nafronyl.

[3] = test system: Thoracic aortic rings precontracted with serotonin; test: Relaxation of rat aortic rings using serotonin 2 μM as contracting agent; conditions: for EC50: Rattus norvegicus, read-out: EC50 relaxing effect
Description: as §1, with “Nafronyl oxalate was confirmed to be a potent serotonin antagonist” for “Relaxation experiments on aortas precontracted”, “an EC50 1.54·10^−8 M for its relaxing effect.” for “8-iso-prostaglandin F2α 1 μM were done with picotamide monohydrate alone in increasing concentrations of 10^−8 M, 10^−7 M, 10^−6 M, 10^−5 M, 10^−4 M, as well as with the same concentrations of picotamide monohydrate in the presence of 1 μM nafronyl.”

Structure (SMILES): CCCCC[C@H](O)/C=C/[C@@H]1[C@@H](C/C=C\CCCC(=O)O)[C@H]2CO[C@@H]1C2 [U-46619]
- EC50 [1]: 12.2 ± 2.68 nM

Structure (SMILES): COc1ccc(C(=O)NCc2cccnc2)cc1C(=O)NCc1cccnc1 [Picotamide monohydrate, N,N′-bis-(3-picolyl)-4-methoxy-isophthalamide]
- EC50 ([2]; drug alone): 16.4 µM
- EC50 ([2]; together with 10^−6 M nafronyl oxalate): 2.34 µM
- tension reduction ([3]; 10^−5 M picotamide): 30%

Structure (SMILES): CCCCC[C@H](O)/C=C/[C@@H]1[C@H](C/C=C\CCCC(=O)O)[C@@H](O)C[C@H]1O [8-iso-PGF2α, 8-iso-prostaglandin F2α]
- EC50 [1]: 1000 ± 100 nM

Structure (SMILES): CCN(CC)CCOC(=O)C(Cc1cccc2ccccc12)CC1CCCO1 (stereo not drawn) [Nafronyl oxalate, 2-diethylaminoethyl 2-(naphthalen-1-ylmethyl)-3-(oxolan-2-yl)propanoate]
- EC50 ([2]; drug alone): 3.88 µM
- EC50 ([3]; drug alone): 15.4 nM
- EC50 ([3]; in the presence of 10^−6 M picotamide): 13.3 nM

Structure (SMILES): NCCc1c[nH]c2ccc(O)cc12 [serotonin, 5-hydroxy-tryptamine]
- EC50 [1]: 980 ± 90 nM
